This is an account of results in paper PMC3395435 (Biopolymers, 2012).

Series [1] is classed as physicochemical. The settings on record: pH 7.5.
The subject of series [2] is Swiss Webster mice. To be noted: mouse, in vivo.
In series [3] the test system is Swiss Webster mice. The settings on record: mouse, in vivo; cited from earlier work.
The test system of the next series is rat vas deferens. To be noted: cited from earlier work.

Turning to ω-conotoxin GVIA, the “natively folded peptide retained at the steady state” value in series [1] was “about 60%”. Further, in the series on Swiss Webster mice [2], the “duration of shaking syndrome” value was “maintained for a long time” and the “shaking syndrome (persistent body tremor)” value was “exhibited the shaking syndrome”. For the same substance, in the series on Swiss Webster mice [3], the “duration of shaking syndrome, previous work” value is recorded as “maintained for a long time in a dose-dependent manner” and the “shaking syndrome, previous work” value is recorded as “induce shaking syndrome in mice”. Also, in the series with rat vas deferens, the “Biological activity (twitch responses)” value is listed as 10 nM.
